Source: patent EP0031104A1, “Thiazolidine compounds, processes for their preparation and pharmaceutical compositions containing them” (SANTEN PHARMACEUTICAL CO., LTD., priority 1979, dated 1981)
Where two headings read alike, the source gives them in different places.

Legend:
[1] = target: T1, aldose reductase (Rattus norvegicus, UniProt P07943); experiment: Aldose reductase inhibition (optical density at 340 nm, Kinoshita's method); type: biochemical
T1 construct: Aldose reductase is purified from rat lenses; from tissue; host or cells: rat lens
Protocol: Aldose reductase is purified from rat lenses according to the method of Hoyman et al. [J. Biol. Chem., 240, 877 (1965)]. Action of the compounds (I) of this invention is evaluated by measurement of optical density according to the J.H. Kinoshita's method [Invest.

[2] = Acute toxicity test; details: mouse, in vivo, iv
Protocol: The male ddy-std. strain mice (4 weeks of age, weighing 19-21g) were placed in a breeding room of constant temperature and humidity (23+1°C, 55+5%) and fed freely pellet diet (CE-2, Clea Japan, Inc.) and water ad. libitum for a week. The mice showing the normal growth were selected for the experiment.
Test compounds are dissolved in distilled water and administered (i.v.) in a dose of 0.5ml/20g body weight.

[3] = aldose reductase purified from rat lenses, pH 6.2, DL glyceraldehyde, NADPH, read-out: IC50(M) Molar concentration of a compound producing 50% inhibition of aldose reductase

| Compound | IC50 [1, 3] [M] | IC50 [1] [M] | LD50 ([2]; male ddy-std. strain mice, dissolved in distilled water) [mg/kg] | LD50 [2] [mg/kg] |
| --- | --- | --- | --- | --- |
| O=C(O)CCCCCCCC(=O)N1C(c2cccc([N+](=O)[O-])c2)SC[C@H]1C(=O)O (stereo partly drawn) [compound 22] | 8.2e-10 | – | – | – |
| O=C(O)[C@@H]1CSC(c2cccc([N+](=O)[O-])c2)N1C(=O)CCCCCCCC(=O)N1C(c2cccc([N+](=O)[O-])c2)SC[C@H]1C(=O)O (stereo partly drawn) [compound 47, (4R,4'R)-3,3'-(nonanedioyl)bis-[2-(3-nitrophenyl)-4-thiazolidinecarboxylic acid]] | – | 1.6e-10 | 1000 to 1500 | – |
| N#Cc1cccc(C2SC[C@@H](C(=O)O)N2C(=O)CCCCCCCCC(=O)N2C(c3cccc(C#N)c3)SC[C@H]2C(=O)O)c1 (stereo partly drawn) [compound 56] | 1.7e-09 | – | – | 1000 to 1500 |
| O=C(O)[C@@H]1CSC(c2cccc([N+](=O)[O-])c2)N1C(=O)CCCCCCCCC(=O)N1C(c2cccc([N+](=O)[O-])c2)SC[C@H]1C(=O)O (stereo partly drawn) [compound 57] | – | 5.4e-09 | – | – |
